Drawing on PubChem BioAssay AID180 (DTP/NCI, 2004), this text covers T/C for 15 compounds.

Several values for one entry are separate records, joined by “and”; a condition that tells them apart may be missing. Equal entries are not always repeated.

The experiment deals with BDF1 mice, Adenocarcinoma 755 s.c., tumor weight T/C. In words: NCI In Vivo Anticancer Drug Screen. Data for tumor model Adenocarcinoma 755 (subcutaneous) in B6D2F1 (BDF1) mice. The conditions noted are these: endpoint: mean tumor weight, higher = larger tumour. In outline:
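Tumor-bearing mice receive test compound while controls get vehicle alone. Antitumor effect is scored from survival or tumor dimensions as a T/C quotient.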

The mark [1] stands for this setting: dose: 4.0 mg/kg/injection, schedule: Q01DX011 (ip), vehicle: carboxymethylcellulose (CMC).
The mark [2] stands for this setting: dose: 8.0 mg/kg/injection, schedule: Q01DX011 (ip), vehicle: carboxymethylcellulose (CMC).
The mark [3] stands for this setting: dose: 16.0 mg/kg/injection, schedule: Q01DX011 (ip), vehicle: carboxymethylcellulose (CMC).

The term T/C denotes the result in the treated group divided by that in the control group, in per cent. For `C[C@]12CC[C@@H]3c4ccc(OC(=O)c5ccccc5)cc4CC[C@H]3[C@@H]1CC[C@@H]2O`, the T/C (dose: 77.31 mg/kg/injection, schedule: Q01DX011 (sc), vehicle: steriod suspending solution) was 81 % of control; the T/C (dose: 125.0 mg/kg/injection, schedule: Q01DX011 (sc), vehicle: steriod suspending solution) was 66 % of control; the T/C (dose: 154.63 mg/kg/injection, schedule: Q01DX011 (sc), vehicle: steriod suspending solution) is 94 % of control; the T/C (dose: 250.0 mg/kg/injection, schedule: Q01DX011 (sc), vehicle: steriod suspending solution) is 87 % of control; the T/C (dose: 309.25 mg/kg/injection, schedule: Q01DX011 (sc), vehicle: steriod suspending solution) was 72 % of control; the T/C (dose: 500.0 mg/kg/injection, schedule: Q01DX011 (sc), vehicle: steriod suspending solution) was 84 % of control. Besides, the T/C (dose: 618.5 mg/kg/injection, schedule: Q01DX011 (sc), vehicle: steriod suspending solution) is 91 % of control and the T/C (dose: 1000.0 mg/kg/injection, schedule: Q01DX011 (sc), vehicle: steriod suspending solution) was 54 % of control.

Consider `CC(Nc1ncnc2nc[nH]c12)C(=O)O` (stereo unspecified), for which the T/C (dose: 25.0 mg/kg/injection, schedule: Q01DX011 (ip), vehicle: saline) was 114 % of control; the T/C (dose: 75.0 mg/kg/injection, schedule: Q01DX011 (ip), vehicle: saline) is 86 % of control; the T/C (dose: 225.0 mg/kg/injection, schedule: Q01DX011 (ip), vehicle: saline) was 20 % of control.

As to `CC1CCN2CCC(O)C12` (stereo unspecified), where the note is “dose: 7.0 mg/kg/injection, schedule: Q01DX011 (ip), vehicle: carboxymethylcellulose (CMC)”, the T/C is 98 % of control.

Take `CNC(=O)C(C)C`: the T/C runs as follows: (dose: 31.2 mg/kg/injection, schedule: Q01DX011 (ip), vehicle: other) 44 % of control; (dose: 62.5 mg/kg/injection, schedule: Q01DX011 (ip), vehicle: other) 90 % of control; (dose: 125.0 mg/kg/injection, schedule: Q01DX011 (ip), vehicle: other) 90 % of control; (dose: 250.0 mg/kg/injection, schedule: Q01DX011 (ip), vehicle: other) 77 % of control.

As for `Cn1c(=O)c2c(nc(C(O)(c3ccccc3)c3ccccc3)n2C)n(C)c1=O`, the T/C (dose: 40.0 mg/kg/injection, schedule: Q01DX011 (ip), vehicle: methylcellulose (MC)) was 122 % of control and the T/C (dose: 75.0 mg/kg/injection, schedule: Q01DX011 (ip), vehicle: methylcellulose (MC)) was 66 % of control.

For the compound `CN1CCC(OC(N)=O)CC1`, the T/C was 84 % of control (dose: 44.0 mg/kg/injection, schedule: Q01DX011 (ip), vehicle: carboxymethylcellulose (CMC)); 96 % of control (dose: 87.5 mg/kg/injection, schedule: Q01DX011 (ip), vehicle: carboxymethylcellulose (CMC)); 70 % of control (dose: 100.0 mg/kg/injection, schedule: Q01DX011 (ip), vehicle: carboxymethylcellulose (CMC)); 54 % of control (dose: 155.0 mg/kg/injection, schedule: Q01DX011 (ip), vehicle: carboxymethylcellulose (CMC)); 65 % of control (dose: 175.0 mg/kg/injection, schedule: Q01DX011 (ip), vehicle: carboxymethylcellulose (CMC)); 46 % of control (dose: 230.0 mg/kg/injection, schedule: Q01DX011 (ip), vehicle: carboxymethylcellulose (CMC)). Besides, the T/C (dose: 525.0 mg/kg/injection, schedule: Q01DX011 (ip), vehicle: carboxymethylcellulose (CMC)) was 43 % of control.

For `CSc1nc(N)cc(=O)n1C`, the T/C (dose: 50.0 mg/kg/injection, schedule: Q01DX011 (ip), vehicle: saline) is 100 % of control; the T/C (dose: 100.0 mg/kg/injection, schedule: Q01DX011 (ip), vehicle: saline) is 63 % of control; the T/C (dose: 200.0 mg/kg/injection, schedule: Q01DX011 (ip), vehicle: saline) is 98 % of control.

As for `O=C1[O][Sb]23[O]C(=O)C([O]2)C(O)C(O)C2[O][Sb]4([O]C(=O)C([O]4)C(O)C(O)C1[O]3)[O]C2=O` (stereo unspecified), the T/C (dose: 80.0 mg/kg/injection, schedule: Q01DX011 (ip), vehicle: methylcellulose (MC)) was 50 % of control and 55 % of control.

Regarding `CN(C)c1ccc(/C=C/C2=[N+](C)c3ccccc3C2(C)C)cc1`, the T/C (dose: 2.0 mg/kg/injection, schedule: Q01DX011 (ip), vehicle: other) is 81 % of control.

For the compound `CCCn1cnc2c(=S)nc[nH]c21`, the T/C is 80 % of control (dose: 0.25 mg/kg/injection, schedule: Q01DX011 (ip), vehicle: carboxymethylcellulose (CMC)); 53 % of control (dose: 1.0 mg/kg/injection, schedule: Q01DX011 (ip), vehicle: carboxymethylcellulose (CMC)); 8 % of control and 11 % of control (dose: 3.0 mg/kg/injection, schedule: Q01DX011 (ip), vehicle: carboxymethylcellulose (CMC)); 7 % of control under setting [1]; 6 % of control (dose: 6.25 mg/kg/injection, schedule: Q01DX011 (ip), vehicle: carboxymethylcellulose (CMC)); 10 % of control under setting [2]. The T/C is 5 % of control (dose: 12.5 mg/kg/injection, schedule: Q01DX011 (ip), vehicle: carboxymethylcellulose (CMC)); 4 % of control and 9 % of control under setting [3]; 2 % of control (dose: 25.0 mg/kg/injection, schedule: Q01DX011 (ip), vehicle: carboxymethylcellulose (CMC)); 7 % of control (dose: 31.0 mg/kg/injection, schedule: Q01DX011 (ip), vehicle: carboxymethylcellulose (CMC)); 6 % of control (dose: 62.0 mg/kg/injection, schedule: Q01DX011 (ip), vehicle: carboxymethylcellulose (CMC)).

For the compound `Nc1nc2c(nnn2C2OC(CO)C(O)C2O)c(=O)[nH]1` (stereo unspecified), the T/C (dose: 12.0 mg/kg/injection, schedule: Q01DX011 (ip), vehicle: methylcellulose (MC)) was 38 % of control.

Take `[I][Hg][CH2]C1OCCOC1[CH2][Hg][I]` (stereo unspecified): the T/C reads like this: (dose: 2.5 mg/kg/injection, schedule: Q01DX011 (ip), vehicle: carboxymethylcellulose (CMC)) 73 % of control; (dose: 5.0 mg/kg/injection, schedule: Q01DX011 (ip), vehicle: carboxymethylcellulose (CMC)) 39 % of control; (dose: 10.0 mg/kg/injection, schedule: Q01DX011 (ip), vehicle: carboxymethylcellulose (CMC)) 40 % of control; (dose: 11.0 mg/kg/injection, schedule: Q01DX011 (ip), vehicle: other) 73 % of control; under setting [3], 41 % of control; (dose: 20.0 mg/kg/injection, schedule: Q01DX011 (ip), vehicle: carboxymethylcellulose (CMC)) 30 % of control. Besides, the T/C reads like this: (dose: 22.0 mg/kg/injection, schedule: Q01DX011 (ip), vehicle: other) 61 % of control; (dose: 32.0 mg/kg/injection, schedule: Q01DX011 (ip), vehicle: carboxymethylcellulose (CMC)) 6 % of control; (dose: 44.0 mg/kg/injection, schedule: Q01DX011 (ip), vehicle: other) 53 % of control; (dose: 66.0 mg/kg/injection, schedule: Q01DX011 (ip), vehicle: other) 37 % of control.

As to `CCCCn1nnc2c(Nc3ccc(Cl)cc3)nc(N)nc21`, the T/C (dose: 62.5 mg/kg/injection, schedule: Q01DX011 (ip), vehicle: carboxymethylcellulose (CMC)) is 96 % of control; the T/C (dose: 125.0 mg/kg/injection, schedule: Q01DX011 (ip), vehicle: carboxymethylcellulose (CMC)) is 89 % of control; the T/C (dose: 250.0 mg/kg/injection, schedule: Q01DX011 (ip), vehicle: carboxymethylcellulose (CMC)) was 68 % of control.

Consider `CN1CCC(CN2c3ccccc3Sc3ccccc32)CC1`, for which the T/C (dose: 120.0 mg/kg/injection, schedule: Q01DX011 (ip), vehicle: methylcellulose (MC)) is 23 % of control.

Turning to `CN(C)[C@@H]1C(=O)C(C(=O)NCNc2nc(=S)c3[nH]cnc3[nH]2)=C(O)[C@@]2(O)C(=O)C3=C(O)c4c(O)cccc4[C@@](C)(O)[C@H]3C[C@@H]12`, the T/C is, setting by setting: under setting [1], 52 % of control; under setting [2], 26 % of control; (dose: 15.0 mg/kg/injection, schedule: Q01DX011 (ip), vehicle: carboxymethylcellulose (CMC)) 2 % of control; (dose: 30.0 mg/kg/injection, schedule: Q01DX011 (ip), vehicle: carboxymethylcellulose (CMC)) 1 % of control; (dose: 50.0 mg/kg/injection, schedule: Q01DX011 (ip), vehicle: carboxymethylcellulose (CMC)) 1 % of control.
